“And” between values parts separate entries of the source, which are not always exact repeats. Identical values can stand only once.
target: NK1 receptor (Homo sapiens, UniProt P25103); assay: NK1 receptor binding: inhibition of Substance P binding, Ki by the Chang-Prusoff equation; details: inhibition constant from the concentration giving 50% inhibition of binding; procedure of Duffy et al.
From the text: The percent of MSB is defined by the following equation, wherein “dpm” represents “disintegrations per minute”: [formula]

Chain of NK1 receptor (P25103 whole entry, species assumed): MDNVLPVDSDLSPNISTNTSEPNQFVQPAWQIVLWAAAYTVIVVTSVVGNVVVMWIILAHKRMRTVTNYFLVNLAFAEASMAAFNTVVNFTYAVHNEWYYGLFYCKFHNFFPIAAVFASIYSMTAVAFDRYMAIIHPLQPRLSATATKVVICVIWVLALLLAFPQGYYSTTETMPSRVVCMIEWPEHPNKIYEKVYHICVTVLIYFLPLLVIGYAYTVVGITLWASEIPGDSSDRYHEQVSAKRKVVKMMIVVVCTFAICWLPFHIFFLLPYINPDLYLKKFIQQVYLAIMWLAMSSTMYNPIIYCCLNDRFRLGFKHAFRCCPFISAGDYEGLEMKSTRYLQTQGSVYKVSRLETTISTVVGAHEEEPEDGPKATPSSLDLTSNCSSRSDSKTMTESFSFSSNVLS

Ki | SMILES
0.13 to 1.78 nM | C[C@@H](OC[C@]1(c2ccccc2)C[C@]2(C1)NC(=O)NC2=O)c1cc(C(F)(F)F)cc(C(F)(F)F)c1 [Example 11a]
0.13 to 1.78 nM | C[C@@H](OC[C@]1(c2ccccc2)C[C@@]2(C1)NC(=O)NC2=O)c1cc(C(F)(F)F)cc(C(F)(F)F)c1 [Example 11b]
0.13 to 1.78 nM | C[C@@H](OC[C@]1(c2ccccc2)C[C@@]2(CNC(=O)N2)C1)c1cc(C(F)(F)F)cc(C(F)(F)F)c1 [Example 12b]

The next lines start with the compound.

SMILES | Ki
CNC(=O)[C@]1(N)C[C@@](CO[C@H](C)c2cc(C(F)(F)F)cc(C(F)(F)F)c2)(c2ccccc2)C1 [Example 27] | 0.13 to 1.78 nM
C[C@@H](OC[C@]1(c2ccccc2)C[C@](N)(C(N)=O)C1)c1cc(C(F)(F)F)cc(C(F)(F)F)c1 [Example 28] | 0.13 to 1.78 nM
C[C@@H](OC[C@]1(c2ccccc2)C[C@]2(C1)N=CNC2=O)c1cc(C(F)(F)F)cc(C(F)(F)F)c1 [Example 46] | 0.13 to 1.78 nM
C[C@@H](OC[C@]1(c2ccccc2)C[C@]2(C1)NCNC2=O)c1cc(C(F)(F)F)cc(C(F)(F)F)c1 [Example 49] | 0.13 to 1.78 nM and 0.2 nM

— US6878732B2, “NK1 antagonists” (Schering Corporation, priority 2002, dated 2005)
